The results in this text go back to PubChem BioAssay AID624395 (The Scripps Research Institute Molecular Screening Center, 2012).

Active and inactive are the calls of the source. How the calls were made is not given here.

This test has as its system cell-based VP16 transactivation luciferase luminescence. As to the kind of experiment: compounds lowering VP16-driven reporter luminescence – cell-based, counter-screen for NR2E3 agonist project, dose response (AID 624395). A general note: The purpose of a counterscreen is to sort out artefacts and off-target activity.
Take `CCN(c1ccccc1)S(=O)(=O)c1ccc(C(=O)Nc2nnc(CSC)o2)cc1`: the IC50 (as a rule, the midpoint of a concentration-inhibition curve) was 12.7 µM (inactive).

For the compound `CCCc1cc(=O)n2nc(N3CCC(C(=O)N4CCN(c5ccc(OC)cc5)CC4)CC3)sc2n1`, the concentration for half-maximal inhibition (IC50) was 4.44 µM. As for `Cc1cccc(C)c1OCc1cc(C(=O)N2CCC(c3ccncc3)CC2)no1`, the figure is 2.08 µM; as for `O=C(/C=C/c1ccc([N+](=O)[O-])o1)NNC(=O)c1ccc(F)cc1`, 24.2 µM (inactive); as for `CC(C)c1ccc(/C=C(\c2nc3ccccc3[nH]2)S(=O)(=O)c2ccccc2)cc1`, 13.2 µM (inactive). As for `CCc1nnc(NC(=O)c2ccc(S(=O)(=O)N3CCCc4ccccc43)cc2)o1`, the IC50 is 6.8 µM. `COc1ccc(C[C@@H]2OC3(C=CC(=O)C=C3)O[C@H]2Cc2ccc(OC)cc2)cc1`: the IC50 was 0.845 µM.

With `O=C(Nc1ccccc1Cl)/C(Cl)=C(\Cl)S(=O)c1ccccc1` (stereo not drawn), the half-maximal inhibitory concentration (IC50) was 4.1 µM. `Nc1nc(N)nc(-c2cc(O)ccc2O)n1`: the concentration for half-maximal inhibition (IC50) was 1.09 µM. Under `COc1cnc(-c2ccccn2)nc1N(C)c1ccccc1` stands 5.76 µM. As for `CCC(C)Nc1nc(-c2ccccn2)nc2ccccc12` (stereo not drawn), the figure is 3.93 µM. Under `O=C1C=CC2(O[C@H](c3ccccc3)[C@@H](c3ccccc3)O2)[C@H](Sc2ccccc2O)C1` stands 4.89 µM; under `COc1cccc(C(=O)c2sc(NC(C)C)nc2N)c1`, 5.16 µM; under `COc1ccc(NC(=O)c2sc(=O)n(Cc3ccc(F)c(Cl)c3)c2C)cc1OC`, 20.6 µM (inactive). As for `CCCCCCCCn1c(=O)c(C(=O)OC)c(N)c2ccccc21`, the IC50 is 3.64 µM. As for `Cc1cc(C(=O)CSc2nnc3ccccn23)c(C)n1-c1ccccc1`, the figure is 25.7 µM (inactive); as for `Cc1ccnc(NC(=O)Cc2ccc(-c3ccccc3)cc2)c1`, > 39.8 µM (inactive).

As to `Cc1cccc(Cc2cnc(N3C(=N)SC(C)C3=O)s2)c1` (stereo not drawn), the half-maximal inhibitory concentration (IC50) is 4.96 µM. As for `CCC1(O)C(=O)OCc2c1cc1n(c2=O)Cc2cc3c(N)cccc3nc2-1` (stereo not drawn), the figure is 2.33 µM; as for `O=C1/C(=C\c2ccc([N+](=O)[O-])cc2)CS(=O)(=O)C/C1=C/c1ccc([N+](=O)[O-])cc1`, 4.12 µM.

Regarding `CCCCCc1c(-c2ccc(OC)c(OC)c2)ncn1CCc1ccccc1OC`, the IC50 is 7.74 µM. Under `Cc1cnc(NC(=O)C2CC(=O)N(c3ccc4c(c3)OCCO4)C2)s1` (stereo not drawn) stands > 39.8 µM (inactive); under `COc1ccc(NC2c3ccccc3C(=O)N2Cc2ccccc2Cl)cc1OC` (stereo not drawn), > 39.8 µM (inactive). On to `CCCCCCCCCCCCN1[C@@H](CC(=O)O)c2cc(F)ccc2S1(=O)=O`, for which the IC50 was 8.51 µM. As for `Cc1ccc(S(=O)(=O)N2[C@@H](c3ccc(Cl)c(Cl)c3)C(C(=O)O)=C[C@H]2CC2CCCC2)cc1`, the figure is 12 µM (inactive). As for `CC(=O)NC(c1cccs1)c1cc([N+](=O)[O-])c2cccnc2c1O` (stereo not drawn), the figure is 5.77 µM.

Take `O=C(CN1C(=O)C(c2ccc(F)cc2)=NC12CCCC2)Nc1ccc(F)cc1`: the IC50 was 4.48 µM.

Take `COc1ccc(S(=O)(=O)N2CCCCC2)cc1NC(=S)Nc1cccc(Cl)c1C`: the IC50 is > 39.8 µM (inactive). Under `CCc1cc(OCCCSc2nc(C)cc(=O)[nH]2)ccc1Cl` stands 7.05 µM; under `O=C(NCc1cccnc1)/C(=C\c1ccc(-c2ccc(Cl)c(Cl)c2)o1)S(=O)(=O)c1ccccc1`, 7.96 µM. Under `c1ccc(C(Cc2nc(-c3ccncc3)no2)c2ccccc2)cc1` stands 4.37 µM. Turning to `O=c1cc(N2CCN(c3ccccc3)CC2)[nH]c(=O)n1C1CCCCC1`, the IC50 was > 39.8 µM (inactive). Regarding `Cc1ccsc1C(=O)OCC(=O)c1cc(C)n(CC2CCCO2)c1C` (stereo not drawn), the IC50 was 0.0525 µM. Under `CCCOc1ccc(CSc2nc3ccccc3[nH]2)cc1` stands 13.3 µM (inactive). As for `COc1cc(OC)nc(-n2ncc(Br)c(Br)c2=O)n1`, the figure is 4.91 µM. Under `CCC1(O)C(=O)OCc2c1cc1n(c2=O)Cc2cc3cc(O)ccc3nc2-1` (stereo not drawn) stands 3.4 µM. Turning to `COc1cc2c(O)c3c(c(-c4ccc5c(c4)OCO5)c2cc1OC)C(=O)OC3`, the IC50 was 2.3 µM. In the case of `O=[N+]([O-])c1ccc(NS(=O)(=O)c2ccccc2)c(Cl)c1`, the half-inhibitory concentration (IC50) was 4.38 µM.

For `O=C(C(=Cc1ccccc1)CN1CCCCC1)c1ccccc1`, the 50% inhibitory concentration (IC50) is 4.54 µM. Under `C=CCn1c(C)cc(C(=O)COc2ccc(C)nc2[N+](=O)[O-])c1C` stands 0.946 µM.

Take `CC(C(=O)N1CCN(c2ccc(Cl)cc2)CC1)c1ncc(C(F)(F)F)cc1Cl` (stereo not drawn): the IC50 was 7.28 µM. As for `COc1ccc([C@@H]2C[C@H]3[C@@H](CN2S(=O)(=O)c2ccccc2)C(=O)C[C@@H](c2cccc(Cl)c2)N3S(=O)(=O)c2ccc(C)cc2)cc1`, the IC50 was 4.51 µM. For the compound `C=C1C(=O)O[C@@H]2C[C@@H](C)[C@@H]3C=CC(=O)[C@@]3(C)[C@@H](O)[C@H]12`, the IC50 was 4.37 µM.

Regarding `COc1cc2c(OC(C)=O)c3c(c(-c4ccc5c(c4)OCO5)c2cc1OC)C(=O)OC3`, the half-inhibitory concentration (IC50) was 3.48 µM. As for `COc1cccc(N2CCN(c3nc(-c4ccccc4C)cc(=O)[nH]3)CC2)c1`, the figure is 4.57 µM; as for `CCOc1ccc(-c2nc(CSCC(=O)N3CCN(c4cccc(OC)c4)CC3)c(C)o2)cc1`, 3.02 µM; as for `COCCCNC(=S)N1CCN(c2nc(-c3ccc(Cl)cc3)cs2)CC1`, 10.6 µM (inactive). As for `Cc1cc(C(=O)Nc2ccc(Cl)cc2)c(C)n1-c1ccccc1`, the half-inhibitory concentration (IC50) is 0.00684 µM. Under `Cc1ccc(-c2nc(NC(=O)CSc3nnnn3-c3ccccc3)ns2)cc1` stands 12.1 µM (inactive); under `COc1ccc2c(CC(=O)Nc3ncc(C)s3)coc2c1`, > 39.8 µM (inactive); under `Cc1ccnc(NC(=S)N2CCN(c3cccc(C(F)(F)F)c3)CC2)c1`, 12.3 µM (inactive).

Turning to `NS(=O)(=O)c1ccc(CCNc2nn3c(-c4cccc(OC(F)(F)F)c4)cnc3s2)cc1`, the IC50 is 4.66 µM. As for `O=C(COc1cccc2ccccc12)Nc1ccc(Cl)cc1C(=O)O`, the half-inhibitory concentration (IC50) is 4.04 µM. On to `CC(C)(C)c1ccc(CSc2nc(N)cc(=O)[nH]2)cc1`, for which the half-inhibitory concentration (IC50) was 4.53 µM. With `CCCCC[C@@H]1C=C(C(=O)O)[C@H](c2ccc(Cl)c(Cl)c2)N1S(=O)(=O)c1ccc(C)cc1`, the half-inhibitory concentration (IC50) is 8.77 µM.

Consider `COc1cccc(NC(=O)CSc2nc3ncc(Br)cc3[nH]2)c1`, for which the IC50 was > 39.8 µM (inactive). Under `CCc1cccc2sc(N3CCN(C(=O)c4ccc([N+](=O)[O-])o4)CC3)nc12` stands > 13.3 µM (inactive).

Turning to `CCC(=O)N1CCCc2cc(S(=O)(=O)N3CCN(c4ccccn4)CC3)ccc21`, the IC50 was 22.5 µM (inactive). As to `OC[C@@H]1CN(Cc2ccc(-c3ccccc3)cc2)C[C@H](n2cnc3c(Nc4ccccc4)ncnc32)O1`, the half-inhibitory concentration (IC50) was 5 µM. As for `Cc1ccc(S(=O)(=O)N2[C@@H](c3ccc(Cl)cc3)C(C(=O)O)=CC[C@H]2c2ccc(C(C)C)cc2)cc1`, the figure is 7.56 µM.

On to `Cc1noc(C)c1S(=O)(=O)Nc1ccc(C(=O)N2CCN(c3ccc(Cl)cc3)CC2)cc1`, for which the IC50 is 7.09 µM. As for `CC(C)(C)C(=O)Nc1ccc(Sc2ccc([N+](=O)[O-])cc2)cc1`, the figure is 4.6 µM. As for `O=C(O)CC1(CC(=O)Nc2cc(C(F)(F)F)cc(C(F)(F)F)c2)CCCCC1`, the figure is 14.1 µM (inactive).
